“Also recorded” adds a separate entry of the source. Residues, ends and D or L forms follow the SMILES beside them. *: point of attachment. Cbz = O=C(OCc1ccccc1)*
Assays:
[1] = system: GS; test: Glutamine-induced GS degradation in glutamine-starved H1299 cells with Torin1 and CB5083; format: cell-based
Experimental: FIG. 8A depicts a Western blot. Glutamine-starved H1299 cells, pre-treated with 250 nM Torin1 and 10 μM CB5083 for 0.5 h, were stimulated with 4 mM glutamine for 4 h. Cell extracts were analyzed by IB with the indicated antibodies.

[2] = system: GS; test: GS ubiquitylation in USP15-/- 293FT cells, TUBE2 pulldown; format: cell-based; details: for accumulation of ubiquitylated GS under CB-5083 with co-treatment: pre-treated 2 μM MLN4924 or 2 mM MSO 0.5 h, then CB-5083 6 h
Description: FIG. 3B depicts a Western blot. […] Total ubiquitylated proteins were purified using TUBE2-agarose.

[3] = system: GSPT1; test: CC-885-induced GSPT1 ubiquitylation and degradation in USP15-/- 293FT cells with inhibitors
[4] = system: GS; details: Jurkat cells, treated 4 h; cited from earlier work
[5] = system: GS; test: Rescue of endogenous GS protein levels in USP15-KO 293FT cells, immunoblot; format: cell-based; details: 2 μM MLN4924 or 2 mM MSO
Experimental: Cell extracts were analyzed by IB with the indicated antibodies.

[6] = system: GS; test: GS stability in mTOR-shRNA 293FT cells treated with MLN4924 or MSO; format: cell-based; details: mTOR-shRNA TRIPZ_3 293FT cells, treated 14 h
Experimental: Cells were treated with different concentrations of MLN4924 for 14 h. Cell extracts were analyzed by IB with the indicated antibodies.
Cells were treated with different concentrations of MSO (G) for 14 h. Cell extracts were analyzed by IB with the indicated antibodies.

[7] = system: GS; test: Glutamine-induced GS degradation in H1299 cells co-treated with DUB inhibitor and MLN4924; format: cell-based; details: 2 μM MLN4924 with NSC632839 or PR-619, 4 mM glutamine 8 h
Experimental: FIG. 1G depicts a Western blot. […] Cell extracts were analyzed by IB. The relative ratio of GS:Actin is shown.
FIG. 1H depicts a Western blot. […] Cell extracts were analyzed by IB. The relative ratio of GS:Actin is shown.

[8] = system: LN229 cells; details: no glutamine, MSO 2 mM, 5 days
Experimental: FIG. 3E depicts quantification of cell viability. […] An equal number of cells (1×10^6 cells in 10-cm plates) were then shifted to medium without glutamine in the presence (+) or absence (−) of the GS inhibitor MSO (2 mM) for 5 days, after which cell viability was quantified by staining with 0.4% Trypan blue. Cell viability was normalized to MSO-untreated control (−), which was set to 100%.

[9] = target: T1, USP15 (Homo sapiens, UniProt Q9Y4E8); test: In vitro deubiquitylation assay with recombinant USP15 (rUSP15); details: for activity of USP15 (deubiquitylation of polyubiquitylated GSPT1): 37° C., 0.5 h
T1 sequence (Q9Y4E8 1-981): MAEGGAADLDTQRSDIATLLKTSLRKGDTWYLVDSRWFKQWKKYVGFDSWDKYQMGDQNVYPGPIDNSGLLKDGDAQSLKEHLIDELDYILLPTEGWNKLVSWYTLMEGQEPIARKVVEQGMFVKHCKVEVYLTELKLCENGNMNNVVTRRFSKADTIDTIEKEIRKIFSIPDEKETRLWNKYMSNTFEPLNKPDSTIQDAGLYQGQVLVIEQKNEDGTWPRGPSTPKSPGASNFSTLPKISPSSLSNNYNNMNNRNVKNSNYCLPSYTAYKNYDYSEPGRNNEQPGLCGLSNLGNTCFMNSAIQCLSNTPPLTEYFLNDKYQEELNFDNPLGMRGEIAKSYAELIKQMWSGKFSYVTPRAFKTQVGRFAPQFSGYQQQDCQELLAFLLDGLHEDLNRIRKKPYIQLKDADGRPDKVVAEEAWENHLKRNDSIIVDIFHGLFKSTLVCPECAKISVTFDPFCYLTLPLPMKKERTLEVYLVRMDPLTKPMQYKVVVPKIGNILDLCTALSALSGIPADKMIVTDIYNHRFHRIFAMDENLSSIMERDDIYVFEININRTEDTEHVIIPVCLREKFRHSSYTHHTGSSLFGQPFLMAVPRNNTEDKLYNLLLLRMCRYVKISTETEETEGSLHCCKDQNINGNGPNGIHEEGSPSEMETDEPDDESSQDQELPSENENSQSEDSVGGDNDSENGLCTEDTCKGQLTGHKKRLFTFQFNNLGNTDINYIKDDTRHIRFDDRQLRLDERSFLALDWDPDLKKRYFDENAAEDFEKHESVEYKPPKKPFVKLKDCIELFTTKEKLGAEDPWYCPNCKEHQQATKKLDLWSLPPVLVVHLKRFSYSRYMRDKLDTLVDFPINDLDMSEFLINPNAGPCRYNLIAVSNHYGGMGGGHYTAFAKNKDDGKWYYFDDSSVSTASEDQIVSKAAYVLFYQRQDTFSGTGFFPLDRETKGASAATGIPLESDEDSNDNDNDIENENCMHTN
Description: GSPT1(Ub)n: polyubiquitylated GSPT1.
SE and LE: short and long exposures. GSPT1(Ub)n: polyubiquitylated GSPT1.

[10] = system: GS; test: Glutamine-induced GS ubiquitylation, TUBE2 pulldown and immunoblot in MCF7 cells; format: cell-based; details: MCF7 cells starved of glutamine 24 h; 40 μM NSC632839 or 20 μM PR-619 0.5 h, then 4 mM glutamine 2 h
Experimental: FIG. 1D depicts a Western blot. MCF7 cells, starved of glutamine for 24 h, were treated with MG132 (10 μM) and/or 40 μM NSC632839, 20 μM PR-619 for 0.5 h, followed by 4 mM glutamine treatment for 2 h. Total ubiquitylated proteins were purified using TUBE2-agarose, and then analyzed by IB with indicated antibodies. The relative ratio of ubiquitylated GS, GS(Ub)n to input GS, normalized to that of glutamine-treated cells in lane 2, are shown.

[11] = system: GS; test: Endogenous GS protein level by immunoblot in glutamine-treated MCF7 cells; format: cell-based; details: MCF7 cells starved of glutamine 24 h; inhibitor 0.5 h, then 4 mM glutamine 10 h
Experimental: FIG. 1E depicts a Western blot. MCF7 cells, starved of glutamine for 24 h, were treated with NSC632839 for 0.5 h, followed by 4 mM glutamine treatment for 10 h. Cell extracts were analyzed by IB. The relative ratio of GS:Actin is shown.
FIG. 1F depicts a Western blot. MCF7 cells, starved of glutamine for 24 h, were treated with PR-619 for 0.5 h, followed by 4 mM glutamine treatment for 10 h. Cell extracts were analyzed by IB. The relative ratio of GS:Actin is shown.

[12] = system: RPMI8226 cells; test: RPMI8226 cell number/viability, PR-619 with lenalidomide, Trypan blue; format: cell-based; details: PR-619 1 μM with lenalidomide, 4 days
Description: FIG. 6G depicts total cell number after different treatment conditions. […] Error bars represent the SEM of triplicates (P<0.003 by t test).

[13] = system: cysteine protease DUBs, including USP15; details: cited from earlier work
[14] = system: U266 cells; test: Neo-substrate degradation in U266 cells, PR-619 with lenalidomide, immunoblot; format: cell-based; details: PR-619 2 μM 1 h, lenalidomide 0, 2 and 10 μM 6 h
Experimental: FIG. 6L depicts a Western blot. […] Cell extracts were analyzed by SDS-PAGE and immunoblotting with indicated antibodies.

[15] = system: USP15; test: USP15 S229 phosphorylation by mass spectrometry in 293FT cells; format: cell-based; details: 250 nM Torin1 16 h vs DMSO
Experimental: FIG. 10C depicts the phosphorylation peptide abundance calculated by phosphorylated peptides/(phosphorylated peptides+unmodified peptides)*100%. The abundance of S229 phosphorylation (P-S229) was calculated and represented as mean±SD; n=2 per group (p=0.01035 by t test).
To map the phosphorylation sites of USP15, which has 32 potential serine/threonine phosphorylation sites reported in ‘PhosphoSitePlus’ with the most prevalent serine 229, USP15^Flag was immune-purified from 293FT cells treated with DMSO or 250 nM Torin1 for 16 h and analyzed by MS analysis. […] Moreover, it represents an mTOR consensus sequence motif S/T-P (where S is serine; T is threonine; and P is proline) (FIG. 10B). […] Thus, the MS data were consistent with the other results, showing that USP15 was phosphorylated at serine in an mTORC1-dependent manner (FIG. 7B-7C).
MS analysis to identify the phosphorylation sites of USP15 was done at the Charles W. Gehrke proteomics center—University of Missouri, as described previously (Peterson T R, et al., Cell. 2009; 137(5):873-86. Epub 2009/05/19).

[16] = system: mTORC1; test: Glutamine-induced serine phosphorylation of USP15^Flag and USP15-GS binding, IP in 293FT cells; format: cell-based
Experimental: FIG. 7B depicts a Western blot. 293FT cells, transfected with CT or USP15^Flag plasmid for 24 h, were grown in complete medium (C; 2 mM glutamine) or starved of glutamine for 24 h, then treated with Torin1 for 0.5 h, followed by 4 mM glutamine treatment for 1-2 h. Cell extracts were immunoprecipitated with anti-Flag. The relative ratios of phosphorylated serine USP15^Flag to total input USP15^Flag and endogenous GS interacted with USP15^Flag to input GS, normalized to that of untreated cells in lane 3, are shown.

Cc1cc2c(C(N)=O)cccc2n1-c1nc2c(c(NCc3ccccc3)n1)COCC2 [CB-5083]
Torin-1-promoted glutamine-induced GS degradation with p97 inhibitor ([1]; H1299 cells, 10 μM CB5083 with 250 nM Torin1): blunted | accumulation of ubiquitylated GS ([2]; 0.5 mM glutamine, CB-5083 6 h): accumulation of ubiquitylated GS was observed

CC(C)C[C@@H](C=O)NC(=O)[C@H](CC(C)C)NC(=O)[C@H](CC(C)C)NC(=O)OCc1ccccc1 [MG132] (Cbz-Leu-Leu-Leu-aldehyde)
CC-885-induced degradation of GSPT1 ([3]; USP15-/- 293FT cells co-treated with CC-885 and inhibitor): blocked | polyubiquitylated GSPT1 on co-treatment with CC-885 ([3]; USP15-/- 293FT cells, 10 μM CB-5083 or 20 μM MG132, 10 μM CC-885 3 h): polyubiquitylated GSPT1 was accumulated | GS ubiquitylation (SILAC ubiquitinome) [4]: increased ubiquitylation of GS

NS(=O)(=O)OC[C@@H]1C[C@@H](n2ccc3c(N[C@H]4CCc5ccccc54)ncnc32)C[C@@H]1O [MLN4924]
downregulation of endogenous GS protein levels in USP15-KO cells [5]: rescued | accumulation of polyubiquitylated GSPT1 (CC-885 with MG132 or CB-5083) in presence of MLN4924 ([3]; USP15-/- 293FT cells, 2 μM MLN4924): completely abolished | accumulation of ubiquitylated GS under CB-5083 with co-treatment [2]: but not in cells co-treated with MLN4924 and MSO | effect of mTOR depletion by shRNA on GS stability [6]: rescued the effect of mTOR depletion by shRNA on GS stability | effect on action of DUB inhibitors on glutamine-induced GS degradation [7]: blocked the action of DUB inhibitors on glutamine-induced GS degradation

CS(=N)(=O)CC[C@H](N)C(=O)O (stereo partly drawn) [MSO, L-Methionine sulfoximine]
cell viability, combined with USP15 depletion by shRNAs ([8]; LN229 cells with USP15 shRNAs): synergistic inhibition of cell viability | cell viability ([8]; control LN229 cells): severe defect in cell viability | downregulation of endogenous GS protein levels in USP15-KO cells [5]: rescued | accumulation of ubiquitylated GS under CB-5083 with co-treatment [2]: but not in cells co-treated with MLN4924 and MSO | effect of mTOR depletion by shRNA on GS stability [6]: rescued the effect of mTOR depletion by shRNA on GS stability

CCN1C(=O)C=CC1=O [N-Ethylmaleimide]
activity of USP15 (deubiquitylation of polyubiquitylated GSPT1) ([9]; NEM 20 mM (FIG. 5B legend)): completely inhibited

Cc1ccc(/C=C2\CNC/C(=C\c3ccc(C)cc3)C2=O)cc1.Cl [NSC632839]
glutamine-induced ubiquitylation of GS [10]: promoted glutamine-induced ubiquitylation of GS | protein levels of endogenous GS [11]: decreased protein levels of endogenous GS

N#CSc1cc(SC#N)c(N)nc1N [PR-619]
activity of USP15 (deubiquitylation of polyubiquitylated GSPT1) ([9]; PR-619 100 μM): completely inhibited | USP15 activity ([9]; PR-619 concentration range 1-20 μM): substantially suppressed USP15 activity in a dose-dependent manner | glutamine-induced ubiquitylation of GS [10]: promoted glutamine-induced ubiquitylation of GS | GS ubiquitylation (SILAC ubiquitinome) [4]: decreased GS ubiquitylation; also recorded: decreased the ubiquitination of GS | sensitization to lenalidomide (cell number/viability) [12]: sensitized resistant cell line RPMI8226 to lenalidomide | inhibition of DUB activity (previous study) [13]: can inhibit the activity of almost all cysteine protease DUBs, including USP15 | protein levels of endogenous GS [11]: decreased protein levels of endogenous GS | degradation of neo-substrates on co-treatment with lenalidomide [14]: significantly promoted degradation of neo-substrates

CCC(=O)N1CCN(c2ccc(-n3c(=O)ccc4cnc5ccc(-c6cnc7ccccc7c6)cc5c43)cc2C(F)(F)F)CC1 [Torin1]
glutamine-induced GS degradation ([1]; glutamine-starved H1299 cells, 250 nM Torin1, 4 mM glutamine 4 h): promoted glutamine-induced GS degradation | S229 phosphorylation of USP15 [15]: significantly decreased | glutamine-induced phosphorylated serine USP15^Flag (P-Ser-USP15) ([16]; Torin1 0.5 h then 4 mM glutamine 1-2 h): substantially abolished | binding of USP15 to GS ([16]; Torin1-treated): significant reduction in binding of USP15 to GS

— patent US20240245664A1, “METHODS OF USING USP15 INHIBITORS” (The Curators of the University of Missouri, priority 2021, published 2024)
